Source: ChEMBL document CHEMBL2150897, “Discovery of DS-8108b, a Novel Orally Bioavailable Renin Inhibitor” (ACS Med Chem Lett, 2012)
Residue numbers refer to the chain shown, from its start.

Key:
[1] = Cmax in cynomolgus monkey at 3 mg/kg, po; type: ADME, organism-based, Macaca fascicularis; set-up: dose 3 mg/kg, route oral; details: in vivo
[2] = Tmax in cynomolgus monkey at 3 mg/kg, po; type: ADME, organism-based, Macaca fascicularis; set-up: dose 3 mg/kg, route oral; details: in vivo
[3] = AUC ( 0 to t) in cynomolgus monkey at 3 mg/kg, po; type: ADME, organism-based, Macaca fascicularis; set-up: dose 3 mg/kg, route oral; details: plasma
[4] = Half life in cynomolgus monkey at 3 mg/kg, po; type: ADME, organism-based, Macaca fascicularis; set-up: dose 3 mg/kg, route oral; details: in vivo
[5] = Oral bioavailability in cynomolgus monkey at 3 mg/kg; type: ADME, organism-based, Macaca fascicularis; details: in vivo
[6] = AUC ( 0 to t) in cynomolgus monkey at 3 mg/kg, iv; type: ADME, organism-based, Macaca fascicularis; set-up: dose 3 mg/kg, route intravenous; details: plasma
[7] = Half life in cynomolgus monkey at 3 mg/kg, iv; type: ADME, organism-based, Macaca fascicularis; set-up: dose 3 mg/kg, route intravenous; details: in vivo
[8] = Clearance in cynomolgus monkey at 3 mg/kg, iv; type: ADME, organism-based, Macaca fascicularis; set-up: dose 3 mg/kg, route intravenous; details: in vivo
[9] = Volume of distribution at steady state in cynomolgus monkey at 3 mg/kg, iv; type: ADME, organism-based, Macaca fascicularis; set-up: dose 3 mg/kg, route intravenous; details: in vivo, read-out: Vdss
[10] = Cmax in cynomolgus monkey at 10 mg/kg, po; type: ADME, organism-based, Macaca fascicularis; set-up: dose 10 mg/kg, route oral; details: in vivo
[11] = Tmax in cynomolgus monkey at 10 mg/kg, po; type: ADME, organism-based, Macaca fascicularis; set-up: dose 10 mg/kg, route oral; details: in vivo
[12] = AUC ( 0 to t) in cynomolgus monkey at 10 mg/kg, po; type: ADME, organism-based, Macaca fascicularis; set-up: dose 10 mg/kg, route oral; details: plasma
[13] = Half life in cynomolgus monkey at 10 mg/kg, po; type: ADME, organism-based, Macaca fascicularis; set-up: dose 10 mg/kg, route oral; details: in vivo
[14] = Oral bioavailability in cynomolgus monkey at 10 mg/kg; type: ADME, organism-based, Macaca fascicularis; details: in vivo
Renin [15] = molecular target: T1, Renin (Homo sapiens, UniProt P00797); assay: Inhibition of human recombinant renin compound treated for 10 mins before substrate addition measured after 90 mins by fluorescence method
T1 sequence (P00797 whole entry): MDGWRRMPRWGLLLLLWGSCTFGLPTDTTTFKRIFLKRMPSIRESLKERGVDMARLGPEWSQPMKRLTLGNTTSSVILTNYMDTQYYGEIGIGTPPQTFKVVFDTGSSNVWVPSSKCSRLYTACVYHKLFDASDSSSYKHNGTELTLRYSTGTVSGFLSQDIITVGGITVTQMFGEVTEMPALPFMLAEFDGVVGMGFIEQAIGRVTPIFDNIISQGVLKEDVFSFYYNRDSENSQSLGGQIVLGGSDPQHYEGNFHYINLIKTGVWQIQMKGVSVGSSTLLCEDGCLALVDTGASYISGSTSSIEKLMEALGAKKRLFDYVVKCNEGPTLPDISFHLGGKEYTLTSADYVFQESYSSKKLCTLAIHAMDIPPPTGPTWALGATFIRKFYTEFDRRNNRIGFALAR

Renin [16] = molecular target: T1, Renin; assay: Inhibition of human plasma renin activity after 60 mins by competitive RIA
Renin [17] = molecular target: T2, Renin (Macaca fascicularis, UniProt Q6DLS0); assay: Inhibition of cynomolgus monkey plasma renin activity after 60 mins by competitive RIA
T2 sequence (Q6DLS0 whole entry): T1 sequence (P00797 whole entry) with T68A, I214L, S235A

Cathepsin D = Cathepsin D (Homo sapiens, UniProt P07339); assay: Inhibition of human cathepsin D
Cathepsin E = molecular target: T3, Cathepsin E (Homo sapiens, UniProt P14091); assay: Inhibition of human cathepsin E
T3 sequence (P14091 whole entry): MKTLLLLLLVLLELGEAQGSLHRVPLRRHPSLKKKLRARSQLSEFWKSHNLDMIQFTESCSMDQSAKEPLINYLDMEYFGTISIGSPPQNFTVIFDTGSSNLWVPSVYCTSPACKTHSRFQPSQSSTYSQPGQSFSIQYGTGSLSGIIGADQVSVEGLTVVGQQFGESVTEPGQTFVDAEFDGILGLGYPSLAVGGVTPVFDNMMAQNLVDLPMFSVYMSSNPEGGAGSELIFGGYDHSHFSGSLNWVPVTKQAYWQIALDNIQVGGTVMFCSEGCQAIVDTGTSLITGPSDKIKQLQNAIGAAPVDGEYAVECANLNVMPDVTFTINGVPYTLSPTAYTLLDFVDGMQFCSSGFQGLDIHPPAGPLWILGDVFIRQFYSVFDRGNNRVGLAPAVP

[18] = Inhibition of human pepsin
[19] = Inhibition of HIV protease; set-up: species or system Human immunodeficiency virus
[20] = Inhibition of Cytochrome P450; type: ADME
[21] = molecular target: Voltage-gated inwardly rectifying potassium channel KCNH2 (Homo sapiens, UniProt Q12809); assay: Inhibition of human ERG at 100 uM
[22] = molecular target: Sodium channel protein type 5 subunit alpha (Homo sapiens, UniProt Q14524); assay: Inhibition of human Nav 1.5 at 100 uM
Salmonella typhimurium [23] = assay: Mutagenic activity in Salmonella typhimurium in presence of S9 mixture; type: toxicity, organism-based; details: salmonella enterica subsp. enterica serovar typhimurium
Salmonella typhimurium [24] = assay: Mutagenic activity in Salmonella typhimurium; type: toxicity, organism-based; details: salmonella enterica subsp. enterica serovar typhimurium
Cynomolgus monkey [25] = assay: Ex vivo inhibition of plasma renin activity in po dosed cynomolgus monkey administered after furosemide treatment measured up to 24 hrs; type: functional, organism-based; details: Macaca fascicularis
Cynomolgus monkey [26] = assay: Ex vivo inhibition of plasma renin activity in cynomolgus monkey at 3 mg/kg, po administered after furosemide treatment measured after 24 hrs; type: functional; details: Macaca fascicularis
Cynomolgus monkey [27] = assay: Ex vivo inhibition of plasma renin activity in cynomolgus monkey at 10 mg/kg, po administered after furosemide treatment measured after 24 hrs; type: functional; details: Macaca fascicularis
Cynomolgus monkey [28] = assay: Ex vivo inhibition of plasma renin activity in cynomolgus monkey at 3 to 10mg/kg, po administered after furosemide treatment measured after 24 hrs relative to aliskiren hemifumarate; type: functional, Macaca fascicularis
Cynomolgus monkey [29] = assay: Antihypertensive activity in po dosed cynomolgus monkey assessed as reduction in mean arterial pressure administered as single dose 3 days prior to furosemide treatment measured up to 12 hrs; type: functional, organism-based; details: Macaca fascicularis; Artery
Cynomolgus monkey [30] = assay: Cardiotoxicity in telemetered cynomolgus monkey assessed as change in QRS width at 1000 mg/kg, po administered as single dose measured up to 24 hrs; type: toxicity, organism-based, Macaca fascicularis; set-up: dose 1000 mg/kg, route oral; details: in vivo
Cynomolgus monkey [31] = assay: Cardiotoxicity in telemetered cynomolgus monkey assessed as change in QTc interval at 1000 mg/kg, po administered as single dose measured up to 24 hrs; type: toxicity, organism-based, Macaca fascicularis; set-up: dose 1000 mg/kg, route oral; details: in vivo

Cathepsin D, sequence (P07339 65-162 limits assumed): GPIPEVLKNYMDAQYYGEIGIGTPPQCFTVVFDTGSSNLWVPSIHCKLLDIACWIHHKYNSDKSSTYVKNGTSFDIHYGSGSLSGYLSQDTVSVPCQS
Cathepsin D, sequence (P07339 169-412 limits assumed): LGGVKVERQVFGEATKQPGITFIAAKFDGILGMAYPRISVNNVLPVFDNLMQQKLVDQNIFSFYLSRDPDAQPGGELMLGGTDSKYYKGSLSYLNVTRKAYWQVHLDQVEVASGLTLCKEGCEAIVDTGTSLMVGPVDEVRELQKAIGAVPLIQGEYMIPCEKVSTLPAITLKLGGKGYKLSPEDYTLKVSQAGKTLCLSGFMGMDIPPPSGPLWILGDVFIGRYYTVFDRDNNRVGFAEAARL
Sodium channel protein type 5 subunit alpha, sequence (Q14524 whole entry): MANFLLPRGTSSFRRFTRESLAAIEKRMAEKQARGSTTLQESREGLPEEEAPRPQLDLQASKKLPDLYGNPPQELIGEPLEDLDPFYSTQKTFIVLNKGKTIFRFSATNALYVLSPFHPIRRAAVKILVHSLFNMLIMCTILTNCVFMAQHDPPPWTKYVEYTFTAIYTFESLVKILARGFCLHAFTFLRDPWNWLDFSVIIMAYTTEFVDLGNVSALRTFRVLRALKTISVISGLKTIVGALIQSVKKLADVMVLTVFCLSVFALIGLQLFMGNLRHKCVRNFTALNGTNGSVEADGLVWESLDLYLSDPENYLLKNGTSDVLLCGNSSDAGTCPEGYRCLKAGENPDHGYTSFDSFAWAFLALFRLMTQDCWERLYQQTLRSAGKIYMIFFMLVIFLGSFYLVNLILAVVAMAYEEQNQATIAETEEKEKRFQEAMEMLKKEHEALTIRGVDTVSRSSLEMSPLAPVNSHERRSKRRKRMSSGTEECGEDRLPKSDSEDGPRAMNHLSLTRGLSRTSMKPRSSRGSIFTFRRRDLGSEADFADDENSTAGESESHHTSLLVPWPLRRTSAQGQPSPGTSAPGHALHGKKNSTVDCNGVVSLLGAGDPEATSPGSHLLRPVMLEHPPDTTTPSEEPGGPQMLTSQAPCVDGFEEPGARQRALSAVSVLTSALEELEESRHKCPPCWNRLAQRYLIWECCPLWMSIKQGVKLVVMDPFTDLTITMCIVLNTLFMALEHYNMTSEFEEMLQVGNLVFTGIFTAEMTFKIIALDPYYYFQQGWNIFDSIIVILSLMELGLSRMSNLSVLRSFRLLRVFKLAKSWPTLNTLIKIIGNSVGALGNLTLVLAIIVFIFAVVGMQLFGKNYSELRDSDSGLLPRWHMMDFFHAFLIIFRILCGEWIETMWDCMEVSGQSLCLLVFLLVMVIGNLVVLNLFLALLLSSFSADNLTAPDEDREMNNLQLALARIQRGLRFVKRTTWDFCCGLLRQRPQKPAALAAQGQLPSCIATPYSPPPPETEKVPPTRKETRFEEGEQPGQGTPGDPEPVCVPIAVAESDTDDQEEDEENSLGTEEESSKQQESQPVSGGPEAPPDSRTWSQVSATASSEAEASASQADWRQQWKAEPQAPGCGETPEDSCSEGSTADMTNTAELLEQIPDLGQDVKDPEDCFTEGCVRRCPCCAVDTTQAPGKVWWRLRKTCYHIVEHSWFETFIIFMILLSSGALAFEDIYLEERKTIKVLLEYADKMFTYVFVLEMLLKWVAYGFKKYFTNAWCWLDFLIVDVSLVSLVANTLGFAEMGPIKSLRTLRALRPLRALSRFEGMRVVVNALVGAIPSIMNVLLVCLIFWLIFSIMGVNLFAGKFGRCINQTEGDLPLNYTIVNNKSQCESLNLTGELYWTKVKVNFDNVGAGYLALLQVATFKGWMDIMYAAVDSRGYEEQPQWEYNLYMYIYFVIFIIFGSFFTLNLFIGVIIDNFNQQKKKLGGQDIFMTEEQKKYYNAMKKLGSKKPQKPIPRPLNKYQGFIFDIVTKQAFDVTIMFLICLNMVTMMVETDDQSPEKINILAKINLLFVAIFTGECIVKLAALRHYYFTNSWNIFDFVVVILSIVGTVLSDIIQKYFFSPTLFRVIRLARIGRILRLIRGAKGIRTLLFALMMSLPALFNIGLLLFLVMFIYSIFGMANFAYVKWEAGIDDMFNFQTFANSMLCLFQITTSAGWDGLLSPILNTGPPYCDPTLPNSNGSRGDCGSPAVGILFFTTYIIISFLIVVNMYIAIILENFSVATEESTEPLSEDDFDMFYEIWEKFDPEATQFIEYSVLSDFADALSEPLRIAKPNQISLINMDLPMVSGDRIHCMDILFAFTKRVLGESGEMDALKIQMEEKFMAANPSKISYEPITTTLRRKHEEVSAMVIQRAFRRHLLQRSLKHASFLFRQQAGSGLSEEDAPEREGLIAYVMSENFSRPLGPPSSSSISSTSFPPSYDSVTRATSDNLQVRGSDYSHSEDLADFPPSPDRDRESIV
Voltage-gated inwardly rectifying potassium channel KCNH2, sequence (Q12809 whole entry): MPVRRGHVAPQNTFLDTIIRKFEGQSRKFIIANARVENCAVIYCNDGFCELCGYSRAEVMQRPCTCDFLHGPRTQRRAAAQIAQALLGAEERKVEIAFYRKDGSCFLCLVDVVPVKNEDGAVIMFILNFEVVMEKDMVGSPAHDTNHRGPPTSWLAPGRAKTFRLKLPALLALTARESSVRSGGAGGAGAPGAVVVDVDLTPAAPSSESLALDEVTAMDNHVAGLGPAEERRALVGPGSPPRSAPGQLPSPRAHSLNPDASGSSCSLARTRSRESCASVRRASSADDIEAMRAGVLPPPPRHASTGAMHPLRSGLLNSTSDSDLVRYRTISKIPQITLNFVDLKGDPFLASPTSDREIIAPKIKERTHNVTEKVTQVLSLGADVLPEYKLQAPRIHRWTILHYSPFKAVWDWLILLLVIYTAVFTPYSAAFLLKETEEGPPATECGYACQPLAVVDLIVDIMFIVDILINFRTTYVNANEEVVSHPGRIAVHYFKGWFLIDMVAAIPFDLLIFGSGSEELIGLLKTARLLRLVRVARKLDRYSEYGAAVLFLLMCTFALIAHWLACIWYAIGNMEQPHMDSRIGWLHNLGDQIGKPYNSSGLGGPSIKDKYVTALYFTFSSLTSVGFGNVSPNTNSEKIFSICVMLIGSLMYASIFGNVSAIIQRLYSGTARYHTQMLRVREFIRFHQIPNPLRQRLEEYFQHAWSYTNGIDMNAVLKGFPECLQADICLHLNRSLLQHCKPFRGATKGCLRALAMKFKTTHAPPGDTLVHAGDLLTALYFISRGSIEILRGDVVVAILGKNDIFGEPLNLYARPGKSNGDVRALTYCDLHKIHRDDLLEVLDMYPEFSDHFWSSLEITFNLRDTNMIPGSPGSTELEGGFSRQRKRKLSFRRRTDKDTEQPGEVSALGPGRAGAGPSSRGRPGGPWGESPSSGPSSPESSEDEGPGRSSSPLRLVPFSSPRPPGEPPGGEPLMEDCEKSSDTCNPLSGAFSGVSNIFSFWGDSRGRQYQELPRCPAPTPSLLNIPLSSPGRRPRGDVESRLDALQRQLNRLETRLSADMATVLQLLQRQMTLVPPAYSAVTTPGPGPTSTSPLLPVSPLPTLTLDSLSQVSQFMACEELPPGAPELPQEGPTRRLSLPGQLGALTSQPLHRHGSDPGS

In the case of `CC[C@H](C[C@H](O)[C@@H](N)CN1CC(=O)N(c2ccccc2Cl)CC1(C)C)C(=O)NC1C2CC3CC1CC(O)(C3)C2.O.O=C(O)/C=C/C(=O)O` (stereo partly drawn), the Cmax [1] is reported as 102 ng/mL, the Tmax [2] is reported as 3 h and the AUC(0-t) [3] is reported as 685 ng·h/mL. It also gave a half-life [4] of 5.1 h, a bioavailability [5] of 4.1% and an AUC(0-t) [6] of 15500 ng·h/mL. It also gave a half-life [7] of 7.8 h, a clearance [8] of 3.59 mL/min/kg and a Vd [9] of 1.12 L/kg. It also gave a Cmax [10] of 399 ng/mL, a Tmax [11] of 2.3 h and an AUC(0-t) [12] of 2880 ng·h/mL. For the same compound, the half-life [13] was 5.4 h, the bioavailability [14] was 5.3% and the IC50 (Renin [15]) was 0.9 nM. For the same compound, the IC50 (Renin [16]) was 1.9 nM, the IC50 (Renin [17]) was 6.3 nM and the IC50 (Cathepsin D) was over 10000 nM. The IC50 (Cathepsin E) was over 10000 nM, the IC50 [18] was over 10000 nM and the IC50 [19] was over 10000 nM. For the same compound, the IC50 [20] was over 10000 nM, the “inhibition (INH)” value [21] was “Not Active” and the “inhibition (INH)” value [22] was “Not Active”. The Activity (Salmonella typhimurium [23]) was “Non-toxic”, the Activity (Salmonella typhimurium [24]) was “Non-toxic” and the inhibition (Cynomolgus monkey [25]) was “Dose-dependent effect”. It also gave an inhibition in vivo at 3 mg/kg (Cynomolgus monkey [26]) of 65%, an inhibition in vivo at 10 mg/kg (Cynomolgus monkey [27]) of 65% and a Ratio (Cynomolgus monkey [28]) of 3. The Activity (Cynomolgus monkey [29]) was “Dose-dependent effect”, the Activity (Cynomolgus monkey [30]) was “Non-toxic” and the Activity (Cynomolgus monkey [31]) was “Non-toxic”.
